One data set relates to Vero cells. Kind of data set: CCK8 cytotoxicity assay, Vero cells. The class given is cell-based, monkey. As to conditions: 40 μg/mL, 24 h. On the procedure: (A) Amino acid sequence of Protopolybia-MP III. Basic residues are labeled blue, and acidic residues are labeled red. (B,C) Suppression of intracellular HSV-1 infection by Protopolybia-MP III. Cells were preincubated with Protopolybia-MP III at different concentrations or PBS for 1 h and then infected with HSV-1 at a multiplicity of infection (MOI) of 1. After 24 h, the cells were collected. Intracellular HSV-1 RNA was analyzed by qPCR (B), and intracellular HSV-1 ICP0 protein levels were analyzed by Western blotting (C). (D) Suppression of Protopolybia-MP III on extracellular HSV-1 particles. Cells were treated with Protopolybia-MP III at different concentrations or PBS for 24 h, and then the supernatant was collected and evaluated in a plaque formation assay. (E) Cytotoxicity of Protopolybia-MP III to Vero cells. Cells were treated with Protopolybia-MP III or PBS at different concentrations for 24 h, and then the cytotoxicity was determined by CCK8 assay. * p < 0.05. ** p < 0.01. *** p < 0.001.
(§1) Cells were seeded in a 96-well plate (7000–10,000 cells per well) and cultured at 37 °C overnight. Peptides in a series of concentrations were added to the medium, and cells were then incubated at 37 °C for 24 h. […] Finally, the absorbance was measured at 450 nm using a microplate reader (BioTek, Winooski, VT, USA).

The subject of the next data set is A549 cells. Description: CCK8 cytotoxicity assay, A549 cells. The class given is cell-based, human. The note with it: 40 μg/mL, 24 h. On the procedure: Figure 2 Protopolybia-MP III inhibits HSV-1 replication in human cell lines. (A) Cytotoxicities of Protopolybia-MP III to A549 cells, HCEC, and SK-N-MC. Cells were treated with Protopolybia-MP III at different concentrations or PBS for 24 h, and then cytotoxicities were determined by the CCK8 assay. (B,C) Suppression of intracellular HSV-1 infection by Protopolybia-MP III in A549 cells, HCEC, and SK-N-MC. Cells were preincubated with Protopolybia-MP III at different concentrations or PBS for 1 h and then infected with HSV-1 at an MOI of 1. After 24 h, the cells were collected. Intracellular HSV-1 RNA was analyzed by qPCR (B), and intracellular HSV-1 ICP0 protein expression levels were analyzed by Western blotting (C). (D) Inhibition of Protopolybia-MP III on extracellular HSV-1 particles in A549 cells, HCEC, and SK-N-MC. Cells were treated with Protopolybia-MP III at different concentrations or PBS for 24 h, and then the supernatant was collected and evaluated in a plaque formation assay. * p < 0.05. ** p < 0.01. *** p < 0.001.
as §1
(In general: Tetrazolium assays rely on reduction of a dye to a coloured formazan, in cell work by metabolically active cells.)

For the next data set, the system named is HSV-1 virion. Description: HSV-1 free virion infectivity assay, qPCR. The data set is classed as cell-based, herpes simplex virus type 1. As to conditions: then Vero cells infected, 24 h. On the procedure:
Figure 5 Protopolybia-MP III destroys the integrity of HSV-1 free virions. (A) Schematic diagram for studying the effect of Protopolybia-MP III on HSV-1 free virion infectivity. (B) Effects of Protopolybia-MP III on HSV-1 free virion infectivity at different temperatures. HSV-1 (MOI = 1) and 20 μg/mL Protopolybia-MP III or PBS were coincubated at 4 °C, 22 °C, and 37 °C for 1 h, and then Vero cells were infected as described in (A). After 24 h, cells were collected, and intracellular HSV-1 RNA was analyzed by qPCR. (C) Effects of different concentrations of Protopolybia-MP III on HSV-1 free virion infectivity. HSV-1 (MOI = 1) and 1 or 10 μg/mL Protopolybia-MP III or PBS were coincubated at 37 °C for 1 h, and then Vero cells were infected as described in (A). After 24 h, cells were collected, and intracellular HSV-1 RNA was analyzed by qPCR. (D,E) The effect of Protopolybia-MP III on HSV-1 free virion integrity. HSV-1 and 20 μg/mL Protopolybia-MP III or PBS were coincubated at 37 °C for 1 h. Then, after centrifuging for 2 h at 40,000 rpm at 4 °C, the contents of HSV-1 gB in the supernatant and precipitate were detected by Western blotting (D). In addition, the structure of HSV-1 virions after incubation with Protopolybia-MP III was observed by electron microscopy. The red arrow points to a destroyed HSV-1 virion. *** p < 0.001.
Figure 7 Antiviral activity analysis of Protopolybia-MP III mutants. (A) Amino acid sequences of Protopolybia-MP III mutants. Identical amino acids among Protopolybia-MP I, Protopolybia-MP III, and its mutants are marked in blue, and different amino acids are marked in red. (B) Suppression of Protopolybia-MP I, Protopolybia-MP III, and its mutants on intracellular HSV-1 content. Cells were preincubated with 20 μg/mL peptides or PBS for 1 h and then infected with HSV-1 at an MOI of 1. After 24 h, the cells were collected. Intracellular HSV-1 ICP0 protein levels were analyzed by Western blotting. The ratios of HSV-1 ICP0 to GAPDH were calculated by ImageJ software. (C) Inhibition of HSV-1 free virion infectivity by Protopolybia-MP I, Protopolybia-MP III, and its mutants. HSV-1 (MOI = 1) and 5 μg/mL peptides or PBS were coincubated at 37 °C for 1 h, and the mixtures were then used to infect Vero cells. After 24 h, cells were collected, and intracellular HSV-1 RNA was analyzed by qPCR. ns, no significance. * p < 0.05. ** p < 0.01. *** p < 0.001.
Cells were collected and lysed using TRIzol reagent (Beyotime Biotechnology, Shanghai, China) to release the intracellular total RNA, followed by precipitation with isopropanol. The first-strand cDNA was reverse-transcribed by the HiScript III 1st Strand cDNA Synthesis Kit (+gDNA wiper) (Vazyme, Nanjing, China). The cDNA was quantitated by qPCR with primers using Taq Pro Universal SYBR qPCR Master Mix (Vazyme). The HSV-1 primers were 5′-[…]-3′ (sense) and 5′-[…]-3′ (antisense). The monkey GAPDH primers were 5′-[…]-3′ (sense) and 5′-[…]-3′ (antisense). The human GAPDH primers were 5′-[…]-3′ (sense) and 5′-[…]-3′ (antisense). qPCR experiments were performed on a Bio-Rad CFX96 Touch (Pleasanton, CA, USA) according to the manufacturer’s instructions.
A general note: Real-time PCR tracks product formation cycle by cycle.

Ends that are not written are not given here.

As for “INWLKLGKAVIDAL-NH2 [Protopolybia-MP III]”, in the data set with Vero cells, the “cytotoxicity to Vero cells” value is “almost nontoxic”. Also, the “cytotoxicity to A549 cells” value in the data set on A549 cells is reported as “almost nontoxic”. Moreover, the HSV-1 virions inactivated in the data set on HSV-1 virion (1 μg/mL coincubated with HSV-1 (MOI 1) at 37 °C for 1 h) amounted to 51%; in the data set with HSV-1 virion (10 μg/mL coincubated with HSV-1 (MOI 1) at 37 °C for 1 h), 99%. Also, the “inhibition rate of HSV-1 virion infectivity” value in the data set with HSV-1 virion (20 μg/mL coincubated with HSV-1 (MOI 1) at 4 °C for 1 h), in the data set on HSV-1 virion (20 μg/mL coincubated with HSV-1 (MOI 1) at 22 °C for 1 h) and in the data set on HSV-1 virion (20 μg/mL coincubated with HSV-1 (MOI 1) at 37 °C for 1 h) was “above 99%” in each case. Also, the “inhibition rate of HSV-1 free virion infectivity” value in the data set on HSV-1 virion (mutant comparison (Figure 7C): 5 μg/mL coincubated with HSV-1 (MOI 1) at 37 °C for 1 h) was 97.3%.

Source of the values: publication PMC10976043, “Function and Mechanism of Antiviral Wasp Venom Peptide Protopolybia-MP III and Its Derivatives against HSV-1” (Toxins, 2024).
